The numbers were not newly measured in patent US20220175799A1, “COMPOSITIONS HAVING THE ABILITY TO PROMOTE HEALTHY CHOLESTEROL LEVELS” (Brilliant Lab LLC, priority 2020, published 2022), which cites them from elsewhere.

Read-outs that look alike come from different tables or passages of the source.

Assay in data set [1]: not given
The source holds these as a separate data set.

Assay in data set [2]: not given
The source holds these as a separate data set.

Regarding `O=C(O)C[C@H](O)C[C@H](O)/C=C/c1c(C2CC2)nc2ccccc2c1-c1ccc(F)cc1` [Pitavastatin], the “% LDL-C Reduction” value reads like this: (statin dose 1 mg) 30%; (statin dose 2 mg) 32%; (statin dose 4 mg) 42%.
Turning to `CC(C)c1nc(N(C)S(C)(=O)=O)nc(-c2ccc(F)cc2)c1/C=C/[C@@H](O)C[C@@H](O)CC(=O)O` [Rosuvastatin], the “% LDL-C Reduction” value runs as follows: (statin dose 5 mg) 44%; (statin dose 10 mg) 52%; (statin dose 20 mg) 56%; (statin dose 40 mg) 63%. The “Reduction in LDL-C levels” value in data set [1] (statin daily oral dose 5 mg) is given as 71.1528 mg/dL; in data set [1] (statin daily oral dose 10 mg), 80.4336 mg/dL; in data set [1] (statin daily oral dose 20 mg) it was 89.7144 mg/dL; in data set [1] (statin daily oral dose 40 mg) it was 98.9952 mg/dL; in data set [1] (statin daily oral dose 80 mg) it was 108.276 mg/dL.
With `CC[C@H](C)C(=O)O[C@H]1C[C@@H](C)C=C2C=C[C@H](C)[C@H](CC[C@@H]3C[C@@H](O)CC(=O)O3)[C@H]21` [Lovastatin], the “% LDL-C Reduction” value was 20% (statin dose 10 mg), 26% (statin dose 20 mg), 30% (statin dose 40 mg) and 38% (statin dose 80 mg). The “Reduction in LDL-C levels” value is reported as 39.4434 mg/dL in data set [1] (statin daily oral dose 10 mg), 54.138 mg/dL in data set [1] (statin daily oral dose 20 mg), 68.4459 mg/dL in data set [1] (statin daily oral dose 40 mg) and 83.1405 mg/dL in data set [1] (statin daily oral dose 80 mg).
In the case of `COc1ccc2cc3[n+](cc2c1OC)CCc1cc2c(cc1-3)OCO2` [berberine], in data set [2] (1 g daily), the “reduction of LDL-cholesterol in subjects” value is ~16.4% and the “reduction of total cholesterol in subjects” value is reported as “about 11.6%”.
`CC(C)=CCC/C(C)=C/C=C/C(C)=C/C=C/C(C)=C/C=C/C=C(C)/C=C/C=C(C)/C=C/C=C(\C)CCC=C(C)C` [lycopene]: the “reduction of LDL-cholesterol in subjects” value in data set [2] (22 mg daily) is reported as “about 3.7 mg/dl”.
Turning to `CC(C)c1c(C(=O)Nc2ccccc2)c(-c2ccccc2)c(-c2ccc(F)cc2)n1CC[C@@H](O)C[C@@H](O)CC(=O)O` [Atorvastatin], the “% LDL-C Reduction” value is, setting by setting: (statin dose 10 mg) 38%; (statin dose 20 mg) 42%; (statin dose 40 mg) 52%; (statin dose 80 mg) 60%. The “Reduction in LDL-C levels” value is reported as 58.3917 mg/dL in data set [1] (statin daily oral dose 5 mg); 69.2193 mg/dL in data set [1] (statin daily oral dose 10 mg); 80.0469 mg/dL in data set [1] (statin daily oral dose 20 mg); 91.2612 mg/dL in data set [1] (statin daily oral dose 40 mg); 102.0888 mg/dL in data set [1] (statin daily oral dose 80 mg).
In the case of `CC(C)n1c(/C=C/C(O)CC(O)CC(=O)O)c(-c2ccc(F)cc2)c2ccccc21` (stereo not shown) [Fluvastatin], the “% LDL-C Reduction” value is 20% (statin dose 20 mg), 24% (statin dose 40 mg) and 34% (statin dose 80 mg). The “Reduction in LDL-C levels” value in data set [1] (statin daily oral dose 5 mg) was 17.7882 mg/dL; in data set [1] (statin daily oral dose 10 mg), 28.6158 mg/dL; in data set [1] (statin daily oral dose 20 mg) it was 39.4434 mg/dL; in data set [1] (statin daily oral dose 40 mg), 50.271 mg/dL; in data set [1] (statin daily oral dose 80 mg), 61.0986 mg/dL.
